Results published in ChEMBL document CHEMBL1201862, “PubChem BioAssay data set” (2004).
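Results reflect a 48-hour exposure of cells in 96-well plates to compound at five concentrations. GI50 marks 50% less growth.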 Calls of active or inactive are those of the source. Rule as the data show it: active = GI50 up to about 1.1 µM and inactive = higher.

Legend:
Experiment in all cases: NCI anticancer screen, dose series, 48 h
A498 = system: A498
CAKI-1 = system: CAKI-1
CCRF-CEM = system: CCRF-CEM
EKVX = system: EKVX
HL-60 = system: HL-60
Hs-578T = system: Hs-578T
IGROV-1 = system: IGROV-1
LOX IMVI = system: LOX IMVI
MCF7 = system: MCF7
MDA-MB-435 = system: MDA-MB-435
NCI-H23 = system: NCI-H23
OVCAR-3 = system: OVCAR-3
OVCAR-8 = system: OVCAR-8
PC-3 = system: PC-3
SF-295 = system: SF-295
SF-539 = system: SF-539
SK-MEL-28 = system: SK-MEL-28
UACC-62 = system: UACC-62
RPMI-8226 = system: RPMI-8226

Cc1nnc(CC#N)n1NC(=O)CC#N
GI50 (A498): > 100 µM (inactive)
GI50 (CAKI-1): > 100 µM (inactive)
GI50 (CCRF-CEM): > 100 µM (inactive)
GI50 (EKVX): > 100 µM (inactive)
GI50 (HL-60): > 100 µM (inactive)
GI50 (Hs-578T): > 100 µM (inactive)
GI50 (IGROV-1): > 100 µM (inactive)
GI50 (LOX IMVI): > 100 µM (inactive)
GI50 (MCF7): > 100 µM (inactive)
GI50 (MDA-MB-435): > 100 µM (inactive)
GI50 (NCI-H23): > 100 µM (inactive)
GI50 (OVCAR-3): > 100 µM (inactive)
GI50 (OVCAR-8): > 100 µM (inactive)
GI50 (PC-3): > 100 µM (inactive)
GI50 (SF-295): > 100 µM (inactive)
GI50 (SF-539): > 100 µM (inactive)
GI50 (SK-MEL-28): > 100 µM (inactive)
GI50 (UACC-62): > 100 µM (inactive)

CC/C(Cl)=N\OC(=O)Nc1ccc(F)c(Cl)c1
GI50 (A498): 16.2 µM (inactive)
GI50 (CAKI-1): 5.21 µM (inactive)
GI50 (CCRF-CEM): 2.04 µM (inactive)
GI50 (EKVX): 18.2 µM (inactive)
GI50 (HL-60): 1.83 µM (inactive)
GI50 (Hs-578T): 39.4 µM (inactive)
GI50 (IGROV-1): 16.3 µM (inactive)
GI50 (LOX IMVI): 4.91 µM (inactive)
GI50 (MCF7): 7.1 µM (inactive)
GI50 (MDA-MB-435): 21.2 µM (inactive)
GI50 (NCI-H23): 21.2 µM (inactive)
GI50 (OVCAR-3): 2.59 µM (inactive)
GI50 (OVCAR-8): 17.7 µM (inactive)
GI50 (PC-3): 16 µM (inactive)
GI50 (RPMI-8226): 3.35 µM (inactive)
GI50 (SF-295): 18.2 µM (inactive)
GI50 (SF-539): 19.8 µM (inactive)
GI50 (SK-MEL-28): 15.6 µM (inactive)
GI50 (UACC-62): 20.6 µM (inactive)

Cn1c(=O)c2c(nc3n(Cc4ccccc4)c(=O)c(NCCCBr)cn23)n(C)c1=O
GI50 (A498): > 100 µM (inactive)
GI50 (CAKI-1): > 100 µM (inactive)
GI50 (CCRF-CEM): > 100 µM (inactive)
GI50 (EKVX): 43.6 µM (inactive)
GI50 (HL-60): > 100 µM (inactive)
GI50 (Hs-578T): 27.3 µM (inactive)
GI50 (IGROV-1): 46.7 µM (inactive)
GI50 (LOX IMVI): 99.1 µM (inactive)
GI50 (MCF7): > 100 µM (inactive)
GI50 (MDA-MB-435): > 100 µM (inactive)
GI50 (NCI-H23): > 100 µM (inactive)
GI50 (OVCAR-3): > 100 µM (inactive)
GI50 (OVCAR-8): 84.9 µM (inactive)
GI50 (PC-3): > 100 µM (inactive)
GI50 (RPMI-8226): > 100 µM (inactive)
GI50 (SF-295): 31.8 µM (inactive)
GI50 (SK-MEL-28): > 100 µM (inactive)
GI50 (UACC-62): > 100 µM (inactive)

Cc1nc2ccccc2n1CCc1nc2ccccc2s1
GI50 (A498): 14.8 µM (inactive)
GI50 (CAKI-1): > 100 µM (inactive)
GI50 (CCRF-CEM): 14 µM (inactive)
GI50 (EKVX): 7.23 µM (inactive)
GI50 (HL-60): 14.3 µM (inactive)
GI50 (Hs-578T): 53.6 µM (inactive)
GI50 (IGROV-1): > 100 µM (inactive)
GI50 (LOX IMVI): 64.9 µM (inactive)
GI50 (MCF7): 16.6 µM (inactive)
GI50 (MDA-MB-435): 57.8 µM (inactive)
GI50 (NCI-H23): 30 µM (inactive)
GI50 (OVCAR-3): 17.8 µM (inactive)
GI50 (OVCAR-8): 41.3 µM (inactive)
GI50 (PC-3): 39.9 µM (inactive)
GI50 (RPMI-8226): 15 µM (inactive)
GI50 (SF-295): 8.49 µM (inactive)
GI50 (SF-539): 35.2 µM (inactive)
GI50 (SK-MEL-28): > 100 µM (inactive)
GI50 (UACC-62): 60.8 µM (inactive)

Cc1cc(O)c2c3c(ccc2c1)C(=O)c1c(O)cccc1C3=O [TETRANGULOL]
GI50 (A498): > 100 µM (inactive)
GI50 (CAKI-1): > 100 µM (inactive)
GI50 (CCRF-CEM): 30.1 µM (inactive)
GI50 (EKVX): 7.14 µM (inactive)
GI50 (HL-60): 0.692 µM (active)
GI50 (Hs-578T): > 40.9 µM (inactive)
GI50 (IGROV-1): 2.21 µM (inactive)
GI50 (LOX IMVI): 5.57 µM (inactive)
GI50 (MCF7): 3.3 µM (inactive)
GI50 (MDA-MB-435): 0.179 µM (active)
GI50 (NCI-H23): 3.98 µM (inactive)
GI50 (OVCAR-3): 0.397 µM (active)
GI50 (OVCAR-8): 9.68 µM (inactive)
GI50 (PC-3): 16.1 µM (inactive)
GI50 (RPMI-8226): > 28.5 µM (inactive)
GI50 (SF-295): 17.4 µM (inactive)
GI50 (SF-539): 7.64 µM (inactive)
GI50 (SK-MEL-28): > 100 µM (inactive)
GI50 (UACC-62): 1.55 µM (inactive)

O=c1[nH]nc(Cc2ccccc2)n1N=C1CCCCC1
GI50 (A498): > 100 µM (inactive)
GI50 (CAKI-1): > 100 µM (inactive)
GI50 (CCRF-CEM): > 100 µM (inactive)
GI50 (EKVX): < 0.01 µM (active)
GI50 (HL-60): > 100 µM (inactive)
GI50 (Hs-578T): > 100 µM (inactive)
GI50 (IGROV-1): > 100 µM (inactive)
GI50 (LOX IMVI): > 100 µM (inactive)
GI50 (MCF7): > 100 µM (inactive)
GI50 (MDA-MB-435): > 100 µM (inactive)
GI50 (NCI-H23): > 100 µM (inactive)
GI50 (OVCAR-3): > 100 µM (inactive)
GI50 (OVCAR-8): > 100 µM (inactive)
GI50 (PC-3): > 100 µM (inactive)
GI50 (RPMI-8226): > 100 µM (inactive)
GI50 (SF-295): > 100 µM (inactive)
GI50 (SK-MEL-28): > 100 µM (inactive)
GI50 (UACC-62): > 100 µM (inactive)

O=C(O)c1ccc(CI)cc1
GI50 (A498): 20.8 µM (inactive)
GI50 (CAKI-1): 13.7 µM (inactive)
GI50 (CCRF-CEM): 9.57 µM (inactive)
GI50 (EKVX): 19.5 µM (inactive)
GI50 (HL-60): 20.8 µM (inactive)
GI50 (Hs-578T): 41 µM (inactive)
GI50 (IGROV-1): 21.1 µM (inactive)
GI50 (MCF7): 14.3 µM (inactive)
GI50 (MDA-MB-435): 17.4 µM (inactive)
GI50 (NCI-H23): 12.7 µM (inactive)
GI50 (OVCAR-3): 11.2 µM (inactive)
GI50 (OVCAR-8): 21.9 µM (inactive)
GI50 (PC-3): 15.1 µM (inactive)
GI50 (RPMI-8226): 20.8 µM (inactive)
GI50 (SF-295): 7.82 µM (inactive)
GI50 (SF-539): 18 µM (inactive)
GI50 (SK-MEL-28): 14.3 µM (inactive)
GI50 (UACC-62): 10.8 µM (inactive)
